The experiment has as its system SARS-CoV-2 strain BavPat1. Nature of the experiment: Determination of EC50 and EC90: inhibition of SARS-CoV-2 viral RNA replication in Vero E6 cells (RT-qPCR). The following applies: Severe acute respiratory syndrome coronavirus 2, Vero C1008, 48 h, read-out: EC50 (compound concentration required to inhibit viral RNA replication by 50%). Type of experiment: cell-based.

Read-outs that look alike come from different tables or passages of the source. Some results are limits rather than exact numbers.

This is an account of results in patent US20230181539A1, “METHODS FOR THE TREATMENT OF CORONAVIRUS INFECTIONS” (INSERM (INSTITUT NATIONAL DE LA SANTÉ ET DE LA RECHERCHE …, priority 2020, published 2023).

For `CCn1c(CO)nn(-c2cc(O[C@@H](C)C(F)(F)F)c(C(=O)Nc3c(F)cccc3Cl)cc2F)c1=O` [BAY-2402234, N-(2-Chloro-6-fluorophenyl)-4-[4-ethyl-3-(hydroxymethyl)-5-oxo-1,2,4-triazol-1-yl]-5-fluoro-2-[(2S)-1,1,1-trifluoropropan-2-yl]oxybenzamide], the EC50 (Vero E6 cells, MOI 0.002, 2 days of culture, viral RNA in supernatant) is less than 40 nM.

As to `CCC(CC)COC(=O)[C@H](C)N[P@](=O)(OC[C@H]1O[C@@](C#N)(c2ccc3c(N)ncnn23)[C@H](O)[C@@H]1O)Oc1ccccc1` [remdesivir, Remdesivir], the EC50 worked out at 2700 nM.
